Laboratory results taken from paper PMC11437215 (Nature Communications, 2024).

What was measured:
[1] = tested on: 9B9 T cell (G20-specific); test: Presentation of G20 by dispersed islet cells; conditions: chloroquine vs PBS; B:9–23 10 µM
[2] = tested on: 9B9 T cell (G20-specific); test: Presentation of G20 by blood leukocytes after glucose challenge; assay type: cell-based, NOD mice
[3] = tested on: autoimmune diabetes in female NOD mice; test: Diabetes development; conditions: chloroquine group, all PBS-treated mice became diabetic
[4] = tested on: crinosome subcellular fraction of β cells; test: Crinosome peptidome by mass spectrometry; design: species or system NOD mice
[5] = tested on: insulin epitopes G20 and E21 in crinosome and DCG subcellular fractions; test: Granule-based antigen presentation assay: crinosome; assay type: cell-based, NOD mice; conditions: chloroquine vs PBS
[6] = tested on: crinosomes in pancreatic β cells; test: Electron microscopy count of crinophagic granules; assay type: in vivo, NOD mice
[7] = tested on: type 1 diabetes progression; conditions: autoantibody-positive (stage 1) T1D patients; cited from earlier work
[8] = tested on: tetramer-binding CD4+ T cells; test: Flow cytometry of anergy markers CD73 and FR4 in tetramer-binding CD4+ T cells; assay type: cell-based, NOD and NOD.Ins2−/− mice; conditions: SLOs (Supplementary Fig. 9a)
[9] = tested on: tetramer-binding CD4+ T cells; test: Flow cytometry of FOXP3 and CD44 in tetramer-binding CD4+ T cells; assay type: cell-based, NOD and NOD.Ins2−/− mice; conditions: NOD mice (Fig. 6b)
[10] = tested on: I-A^g7; conditions: Q-to-E conversion; cited from earlier work
[11] = tested on: CD4+ T cells in SLOs; test: Quantification of tetramer-binding CD4+ T cells in SLOs; assay type: cell-based; conditions: SLOs of 6–8-week-old female NOD mice
[12] = tested on: CD4+ T cell clones BDC2.5 and BDC6.9; conditions: cited from earlier work
[13] = tested on: popliteal lymph node T cells (IFNγ, IL-2); test: ELISPOT recall after peptide immunization; conditions: immunized with B:9–23 (Fig. 7c)
[14] = tested on: 9B9 (G20-specific) and IIT-3 (E21-specific) CD4+ T cell hybridomas; assay type: cell-based, mouse; conditions: C3.g7 APC pulsed with antigen; IL-2 (Supplementary Fig. 1a, b)
[15] = tested on: 9B9, IIT-3, CP1- and CP2-specific CD4+ T cell hybridomas; assay type: cell-based, NOD and NOD.B16A mice; conditions: mTECs from NOD or NOD.B16A mice
[16] = tested on: 9B9, IIT-3, CP1- and CP2-specific CD4+ T cell hybridomas; assay type: cell-based, NOD and NOD.B16A mice; conditions: 8 to 10-week-old female NOD mice

For `CCN(CC)CCCC(C)Nc1ccnc2cc(Cl)ccc12` (centres unmarked) [Chloroquine, chloroquine], the “G20 presentation by dispersed islet cells pulsed with exogenous B:9–23 peptide” value [1] was “no difference”, the “presentation of G20 by blood leukocytes during pulse with exogenous B:9–23” value ([2]; chloroquine vs PBS, B:9–23 10 µM) was “without affecting” and the “duration of the effect in inhibiting G20 presentation” value ([2]; preliminary experiments) was “about three days”. The “mice remaining diabetes free by 35 weeks of age” value [3] was “about 33%”, the “overall HIP abundance in crinosomes” value ([4]; chloroquine vs PBS) was “significant decrease” and the “relative abundance of deamidated insulin C-peptides in the crinosome peptidome” value ([4]; chloroquine vs PBS) was “significant reduction”. The “number of peptides in the crinosome peptidome” value ([4]; chloroquine vs PBS, 1.2 × 10^6 β cells per condition) was “significant reduction”, the “HIPs identified in crinosomes” value ([4]; mice given chloroquine, ten HIPs in PBS control) was “only one HIP” and the “PTMs in the crinosome peptidome (methionine oxidation, deamidation, dehydration, phosphorylation, formylation)” value ([4]; peptide-spectra matches, chloroquine vs PBS) was “reduced”. For the same compound, the “effect on presentation of both epitopes in DCGs” value [5] was “did not influence”, the “reduction in the presentation level of both G20 and E21 in the crinosome fraction” value ([5]; male and female NOD mice) was ~ 50% and the “change of crinosome-like vesicles in β cells” value ([6]; male and female NOD mice, short-term chloroquine vs PBS) was “reduced by half”. For the same compound, the “diminishing of crinophagic granules and associated peptide production” value ([6]; young NOD mice (discussion summary)) was “about 50%”.
In the case of `CCN(CCO)CCCC(C)Nc1ccnc2cc(Cl)ccc12` (centres unmarked) [hydroxychloroquine], the “autoantibody acquisition and titers of anti-insulin and anti-GAD antibodies” value [7] is listed as “reduced” and the “progression to stage 2 T1D” value [7] is listed as “did not delay”.
For EALYLVCGE [E21], the “expression of CD73 and FR4 in the FOXP3−CD44hi subset of tetramer-binding T cells” value (from here on “expression of CD73 and FR4”) [8] was “high expression of both CD73 and FR4” and the “FOXP3 phenotype of tetramer-binding CD4+ single-positive thymocytes” value [9] was “majority”.
For GDLQTLALEVARE [CP1d], the “binding affinity to I-A^g7 relative to native CP1” value [10] is listed as “enhanced the binding affinity”.
In the case of ILSVHVATAASQDS [ZnT8], the “tetramer-binding cells per million CD4+ T cells” value [11] is reported as “less than 5 per million CD4^+ T cells”.
In the case of LQTLAL-NAARD [6.9HIP], the “expression of CD73 and FR4” value [8] is given as “much less expression of CD73 and FR4” and the “agonist activity on CD4+ T cell clones BDC2.5 and BDC6.9” value [12] is given as “strong agonists”.
In the case of LQTLAL-WSRMD [2.5HIP], the “expression of CD73 and FR4” value [8] is given as “much less expression of CD73 and FR4” and the “agonist activity on CD4+ T cell clones BDC2.5 and BDC6.9” value [12] is given as “strong agonists”.
In the case of TEGEALYLVCGEGGS [Syn-E21], the “T cell responses upon recall in NOD.Ins2−/− mice” value [13] is reported as “significantly enhanced”, the “T cell responses upon recall in WT NOD mice” value [13] is reported as “minimal” and the “responses of the 9B9 (G20-specific) and IIT-3 (E21-specific) hybridomas” value (“responses of the 9B9” for short) [14] is reported as “exclusively reacted to their corresponding epitopes”.
With TEGVEALYLVCGGGS [Syn-G20] the “responses of the 9B9” value [14] was “exclusively reacted to their corresponding epitopes”.
With TQSPLLKRQLTSFIEKGQE [DBP] the “tetramer-binding cells per million CD4+ T cells” value [11] was “less than 5 per million CD4^+ T cells”.
With VEALYLVCG [G20] the “expression of CD73 and FR4” value [8] was “much less expression of CD73 and FR4” and the “FOXP3 phenotype of tetramer-binding CD4+ single-positive thymocytes” value [9] was “mostly FOXP3^− conventional T cells”.
For insulin, the “T cell responses upon recall in NOD.Ins2−/− mice” value [13] was “significantly enhanced”, the “T cell responses upon recall in WT NOD mice” value [13] was “minimal” and the “presentation of E21 and G20 by mTECs pulsed with antigen” value [15] was “strong presentation of E21, whereas presentation of G20 was minimal”. For the same compound, the “responses of the 9B9” value [14] was “Only the IIT-3 but not the 9B9 T cell responded” and the “presentation of E21 and G20 by dispersed islets pulsed with antigen” value [16] was “only presentation of E21, but not G20, was enhanced”.
